Results from PubChem BioAssay (NCI).
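Compound exposure: 48 hours, 5 concentrations, 96-well plates. GI50: concentration for 50% inhibition of growth. TGI is the concentration that stops growth completely.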

How the values were obtained:
Assay in all cases: growth of human tumour cells (NCI), 48 h
[1] = system: TK-10 renal
[2] = system: SK-MEL-5 melanoma
[3] = system: OVCAR-5 ovarian
[4] = system: HOP-92 NSCLC
[5] = system: SK-OV-3 ovarian
[6] = system: 786-0 renal
[7] = system: NCI-H460 lung
[8] = system: CCRF-CEM leukemia
[9] = system: DU-145 prostate
[10] = system: HOP-62 NSCLC
[11] = system: T-47D breast
[12] = system: IGROV1 ovarian
[13] = system: HCT-116 colon
[14] = system: UO-31 renal
[15] = system: NCI-H226 lung
[16] = system: HCT-15 colon
[17] = system: MOLT-4 leukemia
[18] = system: BT-549 breast
[19] = system: M14 melanoma
[20] = system: A498 renal
[21] = system: CAKI-1 renal
[22] = system: UACC-62 melanoma
[23] = system: KM12 colon
[24] = system: RPMI-8226 leukemia
[25] = system: COLO 205 colon
[26] = system: MALME-3M melanoma
[27] = system: SNB-19 CNS
[28] = system: SW-620 colon
[29] = system: PC-3 prostate
[30] = system: SF-539 CNS
[31] = system: U251 CNS
[32] = system: OVCAR-8 ovarian
[33] = system: HS 578T breast
[34] = system: MDA-MB-435
[35] = system: SF-295 CNS
[36] = system: HL-60(TB) leukemia
[37] = system: EKVX NSCLC
[38] = system: SK-MEL-28 melanoma
[39] = system: LOX IMVI melanoma
[40] = system: OVCAR-3 ovarian
[41] = system: RXF 393 renal
[42] = system: MDA-MB-231 breast
[43] = system: SN12C renal
[44] = system: NCI-H23 lung
[45] = system: HCC-2998 colon
[46] = system: ACHN renal
[47] = system: MCF7 breast
[48] = system: K-562 leukemia
[49] = system: OVCAR-4 ovarian
[50] = system: SR leukemia
[51] = system: SF-268 CNS
[52] = system: SK-MEL-2 melanoma
[53] = system: A549 NSCLC
[54] = system: HT29 colon
[55] = system: NCI/ADR-RES ovarian
[56] = system: SNB-75 CNS
[57] = system: UACC-257 melanoma
[58] = system: NCI-H522 lung
[59] = system: MDA-N

In the case of `COc1ccc2nc3cc(Cl)ccc3c(NCCNCC(O)CO)c2c1` (stereo not drawn), the GI50 [1] is reported as 3.11 µM, the TGI [1] is reported as 12.4 µM and the GI50 [2] is reported as 3.3 µM. The TGI [2] was 11.1 µM, the GI50 [3] was 2.16 µM and the TGI [3] was 11.2 µM. It also gave a GI50 [4] of 2.8 µM, a TGI [4] of 7.18 µM and a GI50 [5] of 2.43 µM. The TGI [5] was 7.95 µM, the GI50 [6] was 2.34 µM and the TGI [6] was 12.3 µM. The GI50 [7] was 0.631 µM, the TGI [7] was 3.33 µM and the GI50 [8] was 1.69 µM. For the same compound, the TGI [8] was 13.8 µM, the GI50 [9] was 1.88 µM and the TGI [9] was 11.4 µM. For the same compound, the GI50 [10] was 1.1 µM, the TGI [10] was 4.74 µM and the GI50 [11] was 1.4 µM. It also gave a TGI [11] of 6.86 µM, a GI50 [12] of 1.7 µM and a TGI [12] of 11.7 µM. For the same compound, the GI50 [13] was 0.391 µM, the TGI [13] was 2.83 µM and the GI50 [14] was 3.62 µM. For the same compound, the TGI [14] was 17.4 µM, the GI50 [15] was 2.18 µM and the TGI [15] was 12.1 µM. It also gave a GI50 [16] of 5.36 µM, a TGI [16] of 20 µM and a GI50 [17] of 0.408 µM. It also gave a TGI [17] of 10.7 µM, a GI50 [18] of 6.69 µM and a TGI [18] of 20.8 µM. For the same compound, the GI50 [19] was 2.79 µM, the TGI [19] was 10.9 µM and the GI50 [20] was 0.245 µM. The TGI [20] was 2.64 µM, the GI50 [21] was 5.79 µM and the TGI [21] was 20.3 µM. For the same compound, the GI50 [22] was 1.55 µM, the TGI [22] was 4.01 µM and the GI50 [23] was 1.66 µM. The TGI [23] was 10.7 µM, the GI50 [24] was 2.3 µM and the TGI [24] was 6.38 µM. For the same compound, the GI50 [25] was 0.622 µM, the TGI [25] was 2.41 µM and the GI50 [26] was 1.72 µM. The TGI [26] was 5.93 µM, the GI50 [27] was 1.29 µM and the TGI [27] was 12.6 µM. It also gave a GI50 [28] of 0.61 µM, a TGI [28] of 11.3 µM and a GI50 [29] of 2.34 µM. It also gave a TGI [29] of 10.7 µM, a GI50 [30] of 1.23 µM and a TGI [30] of 9.14 µM. The GI50 [31] was 1.55 µM, the TGI [31] was 10.8 µM and the GI50 [32] was 1.17 µM. It also gave a TGI [32] of 11.7 µM, a GI50 [33] of 3.75 µM and a TGI [33] of 21.1 µM. For the same compound, the GI50 [34] was 1.44 µM, the TGI [34] was 4.61 µM and the GI50 [35] was 2.33 µM. The TGI [35] was 12.3 µM, the GI50 [36] was 2.83 µM and the TGI [36] was 7 µM. The GI50 [37] was 3.33 µM, the TGI [37] was 13.1 µM and the GI50 [38] was 2.19 µM. It also gave a TGI [38] of 5.43 µM, a GI50 [39] of 0.5 µM and a TGI [39] of 2.35 µM. The GI50 [40] was 1.81 µM, the TGI [40] was 8.55 µM and the GI50 [41] was 1.66 µM. The TGI [41] was 4.75 µM, the GI50 [42] was 1.25 µM and the TGI [42] was 5.83 µM. It also gave a GI50 [43] of 0.946 µM, a TGI [43] of 9.94 µM and a GI50 [44] of 1.62 µM. For the same compound, the TGI [44] was 7.87 µM, the GI50 [45] was 1.59 µM and the TGI [45] was 6.55 µM. For the same compound, the GI50 [46] was 2.27 µM, the TGI [46] was 13.3 µM and the GI50 [47] was 0.624 µM. For the same compound, the TGI [47] was 10.1 µM, the GI50 [48] was 0.807 µM and the TGI [48] was 10.2 µM. It also gave a GI50 [49] of 1.35 µM, a TGI [49] of 9.15 µM and a GI50 [50] of 0.597 µM. It also gave a TGI [50] of 10.8 µM, a GI50 [51] of 1.03 µM and a TGI [51] of 13.1 µM. The GI50 [52] was 2.01 µM, the TGI [52] was 6.97 µM and the GI50 [53] was 3.33 µM. It also gave a TGI [53] of 14.1 µM, a GI50 [54] of 0.726 µM and a TGI [54] of 6.91 µM. It also gave a GI50 [55] of 16.2 µM, a TGI [55] of 36.1 µM and a GI50 [56] of 1.14 µM. The TGI [56] was 11.1 µM, the GI50 [57] was 3.94 µM and the TGI [57] was 12.9 µM. It also gave a GI50 [58] of 0.984 µM and a TGI [58] of 3.93 µM.
For `CCC(=O)N(c1ccccc1)C(C)CN1CCC(O)(c2cccc(C(F)(F)F)c2)CC1` (stereo not drawn), the TGI [1] was 73.3 µM, the TGI [2] was 34.9 µM and the TGI [59] was 39.2 µM. The TGI [3] was 55.4 µM, the TGI [4] was 61.6 µM and the TGI [5] was > 100 µM. For the same compound, the TGI [6] was 40.1 µM, the TGI [8] was 50.1 µM and the TGI [10] was 42.3 µM. The TGI [11] was 98.4 µM, the TGI [12] was > 100 µM and the TGI [13] was 31.1 µM. The TGI [14] was 72.6 µM, the TGI [15] was 76.5 µM and the TGI [16] was 90.9 µM. The TGI [17] was 44.5 µM, the TGI [19] was 33.4 µM and the TGI [20] was 66.3 µM. The TGI [21] was > 100 µM, the TGI [22] was 49.1 µM and the TGI [23] was > 100 µM. For the same compound, the TGI [24] was 45.3 µM, the TGI [25] was 28.5 µM and the TGI [27] was > 100 µM. The TGI [28] was > 100 µM, the TGI [29] was 46 µM and the TGI [30] was 49 µM. The TGI [31] was > 100 µM, the TGI [32] was > 100 µM and the TGI [33] was 99.7 µM. For the same compound, the TGI [34] was 42 µM, the TGI [35] was > 100 µM and the TGI [36] was 39.3 µM. The TGI [37] was > 100 µM, the TGI [38] was 61.2 µM and the TGI [39] was 35 µM. The TGI [40] was > 100 µM, the TGI [41] was > 100 µM and the TGI [42] was 44.7 µM. For the same compound, the TGI [43] was > 100 µM, the TGI [44] was 47.5 µM and the TGI [45] was 57.3 µM. For the same compound, the TGI [46] was > 100 µM, the TGI [48] was 75.4 µM and the TGI [49] was > 100 µM. For the same compound, the TGI [52] was 43 µM, the TGI [53] was > 100 µM and the TGI [54] was 27.2 µM. For the same compound, the TGI [55] was 53.4 µM, the TGI [56] was 76.3 µM and the TGI [57] was 34.3 µM. The TGI [58] was 39 µM.
With `O=C(O)CCNc1ncc2c(n1)-c1ccccc1OC2` the TGI [1] was > 100 µM, the TGI [2] was > 100 µM and the TGI [59] was > 100 µM. The TGI [3] was > 100 µM, the TGI [4] was > 100 µM and the TGI [5] was > 100 µM. The TGI [6] was > 100 µM, the TGI [7] was > 100 µM and the TGI [8] was > 100 µM. The TGI [9] was > 100 µM, the TGI [10] was > 100 µM and the TGI [12] was > 100 µM. The TGI [13] was > 100 µM, the TGI [14] was > 100 µM and the TGI [15] was > 100 µM. For the same compound, the TGI [16] was > 100 µM, the TGI [17] was > 100 µM and the TGI [19] was > 100 µM. The TGI [21] was > 100 µM, the TGI [22] was > 100 µM and the TGI [23] was > 100 µM. The TGI [24] was > 100 µM, the TGI [25] was > 100 µM and the TGI [26] was > 100 µM. The TGI [27] was > 100 µM, the TGI [28] was > 100 µM and the TGI [29] was > 100 µM. For the same compound, the TGI [30] was > 100 µM, the TGI [31] was > 100 µM and the TGI [32] was > 100 µM. For the same compound, the TGI [33] was > 100 µM, the TGI [34] was > 100 µM and the TGI [35] was > 100 µM. For the same compound, the TGI [36] was > 100 µM, the TGI [37] was > 100 µM and the TGI [38] was > 100 µM. The TGI [39] was > 100 µM, the TGI [40] was > 100 µM and the TGI [41] was > 100 µM. The TGI [42] was > 100 µM, the TGI [43] was > 100 µM and the TGI [44] was > 100 µM. For the same compound, the TGI [46] was > 100 µM, the TGI [47] was > 100 µM and the TGI [48] was > 100 µM. For the same compound, the TGI [49] was > 100 µM, the TGI [50] was > 100 µM and the TGI [51] was > 100 µM. The TGI [52] was > 100 µM, the TGI [53] was > 100 µM and the TGI [54] was > 100 µM. For the same compound, the TGI [55] was > 100 µM, the TGI [56] was > 100 µM and the TGI [57] was > 100 µM. For the same compound, the TGI [58] was > 100 µM.
